In ChEMBL document CHEMBL3217422, “Design of membrane targeting tobramycin-based cationic amphiphiles with reduced hemolytic activity” (Medchemcomm, 2013):
Values after ≈ are worked out from the molar mass of the structure shown.

Legend:
[1] = Induction of hemolysis in rat RBC assessed as hemoglobin release at 64 ug/ml after 1 hr by microplate reader analysis; format: cell-based, Erythrocyte; conditions: red blood cells, read-out: Activity
[2] = Induction of hemolysis in rat RBC assessed as hemoglobin release at 32 ug/ml after 1 hr by microplate reader analysis; format: cell-based, Erythrocyte; conditions: red blood cells, read-out: Activity
[3] = test system: Staphylococcus epidermidis; assay: Antibacterial activity against Staphylococcus epidermidis ATCC 35984 assessed as biofilm growth inhibition after 24 hrs by double dilution method; format: functional
Streptococcus mutans [4] = assay: Antibacterial activity against Streptococcus mutans UA159 assessed as biofilm growth inhibition after 24 hrs by double dilution method; format: functional
[5] = test system: Streptococcus pyogenes serotype M12; assay: Ratio of tobramycin MIC to compound MIC against Streptococcus pyogenes serotype M12 strain MGAS9429 after 24 hrs by double dilution method; format: functional
Shigella sonnei [6] = assay: Antibacterial activity against O-antigen negative Shigella sonnei clinical isolate 6831 assessed as growth inhibition after 24 hrs by double dilution method; format: functional; conditions: isolate 6831, 24 h
Shigella sonnei [7] = assay: Antibacterial activity against O-antigen positive Shigella sonnei clinical isolate 6831 assessed as growth inhibition after 24 hrs by double dilution method; format: functional; conditions: isolate 6831, 24 h
Pseudomonas aeruginosa = assay: Antibacterial activity against Pseudomonas aeruginosa ATCC 33347 assessed as growth inhibition after 24 hrs by double dilution method; format: functional; conditions: ATCC 33347, 24 h
[8] = test system: Staphylococcus epidermidis; assay: Antibacterial activity against Staphylococcus epidermidis ATCC 12228 assessed as growth inhibition after 24 hrs by double dilution method; format: functional; conditions: ATCC 12228, 24 h
[9] = test system: Staphylococcus epidermidis; assay: Antibacterial activity against Staphylococcus epidermidis ATCC 35984 assessed as growth inhibition after 24 hrs by double dilution method; format: functional; conditions: ATCC 35984, 24 h
Staphylococcus aureus [10] = assay: Antibacterial activity against Staphylococcus aureus ATCC 9144 assessed as growth inhibition after 24 hrs by double dilution method; format: functional; conditions: ATCC 9144, 24 h
Enterococcus faecalis = assay: Antibacterial activity against Enterococcus faecalis ATCC 29212 assessed as growth inhibition after 24 hrs by double dilution method; format: functional; conditions: ATCC 29212, 24 h
Enterococcus = assay: Antibacterial activity against vancomycin-resistant Enterococcus assessed as growth inhibition after 24 hrs by double dilution method; format: functional
Streptococcus mutans [11] = assay: Antibacterial activity against Streptococcus mutans UA159 assessed as growth inhibition after 24 hrs by double dilution method; format: functional; conditions: UA159, 24 h
Staphylococcus aureus [12] = assay: Antibacterial activity against Methicillin-resistant Staphylococcus aureus assessed as growth inhibition after 24 hrs by double dilution method; format: functional
[13] = Antibacterial activity against Streptococcus pyogenes serotype M12 strain MGAS9429 assessed as growth inhibition after 24 hrs by double dilution method; format: functional; conditions: MGAS9429, 24 h
[14] = Induction of hemolysis in rat RBC assessed as hemoglobin release at 128 ug/ml after 1 hr by microplate reader analysis; format: cell-based, Erythrocyte; conditions: red blood cells, read-out: Activity

SMILES: CCCCCCCCCCCCCCC(=O)NC[C@H]1O[C@H](O[C@@H]2[C@@H](O)[C@H](O[C@H]3O[C@H](CN)[C@@H](O)C[C@H]3N)[C@@H](N)C[C@H]2N)[C@H](O)[C@@H](N)[C@@H]1O
- hemolysis at 1 h, 64 ug/ml [1]: 74.4%
- hemolysis at 1 h, 32 ug/ml [2]: 23%
- MBIC [3]: 8 µg/mL
- MBIC (Streptococcus mutans [4]): 4 µg/mL
- Ratio [5]: 16
- MIC (Shigella sonnei [6]): 32 µg/mL (≈ 46.3 µM)
- MIC (Shigella sonnei [7]): 16 µg/mL (≈ 23.2 µM)
- MIC (Pseudomonas aeruginosa): 128 µg/mL (≈ 185 µM)
- MIC [8]: 4 µg/mL (≈ 5.79 µM)
- MIC [9]: 4 µg/mL (≈ 5.79 µM)
- MIC (Staphylococcus aureus [10]): 8 µg/mL (≈ 11.6 µM)
- MIC (Enterococcus faecalis): 64 µg/mL (≈ 92.6 µM)
- MIC (Enterococcus): 32 µg/mL (≈ 46.3 µM)
- MIC (Streptococcus mutans [11]): 4 µg/mL (≈ 5.79 µM)
- MIC (Staphylococcus aureus [12]): 32 µg/mL (≈ 46.3 µM)
- MIC [13]: 4 µg/mL (≈ 5.79 µM)

SMILES: CCCCCCCCCCCCc1cn(C[C@H]2O[C@H](O[C@@H]3[C@@H](O)[C@H](O[C@H]4O[C@H](CN)[C@@H](O)C[C@H]4N)[C@@H](N)C[C@H]3N)[C@H](O)[C@@H](N)[C@@H]2O)nn1
- hemolysis at 1 h, 128 ug/ml [14]: 89.1%
- hemolysis at 1 h, 64 ug/ml [1]: 26.3%
- MBIC [3]: 16 µg/mL
- MBIC (Streptococcus mutans [4]): 4 µg/mL
- MIC (Shigella sonnei [6]): 64 µg/mL (≈ 93.2 µM)
- MIC (Shigella sonnei [7]): 64 µg/mL (≈ 93.2 µM)
- MIC (Pseudomonas aeruginosa): 64 µg/mL (≈ 93.2 µM)
- MIC [8]: 16 µg/mL (≈ 23.3 µM)
- MIC [9]: 8 µg/mL (≈ 11.6 µM)
- MIC (Staphylococcus aureus [10]): 16 µg/mL (≈ 23.3 µM)
- MIC (Enterococcus faecalis): 128 µg/mL (≈ 186 µM)
- MIC (Enterococcus): 32 µg/mL (≈ 46.6 µM)
- MIC (Streptococcus mutans [11]): 4 µg/mL (≈ 5.82 µM)
- MIC (Staphylococcus aureus [12]): 128 µg/mL (≈ 186 µM)
- MIC [13]: 8 µg/mL (≈ 11.6 µM)

SMILES: CCCCCCCCCCCCCCS(=O)(=O)C[C@H]1O[C@H](O[C@@H]2[C@@H](O)[C@H](O[C@H]3O[C@H](CN)[C@@H](O)C[C@H]3N)[C@@H](N)C[C@H]2N)[C@H](O)[C@@H](N)[C@@H]1O
- hemolysis at 1 h, 64 ug/ml [1]: 74.4%
- hemolysis at 1 h, 32 ug/ml [2]: 23%
- MBIC [3]: 8 µg/mL
- MBIC (Streptococcus mutans [4]): 4 µg/mL
- MIC (Shigella sonnei [6]): 64 µg/mL (≈ 89.9 µM)
- MIC (Shigella sonnei [7]): 32 µg/mL (≈ 44.9 µM)
- MIC (Pseudomonas aeruginosa): 128 µg/mL (≈ 180 µM)
- MIC [8]: 16 µg/mL (≈ 22.5 µM)
- MIC [9]: 16 µg/mL (≈ 22.5 µM)
- MIC (Staphylococcus aureus [10]): 16 µg/mL (≈ 22.5 µM)
- MIC (Enterococcus faecalis): 64 µg/mL (≈ 89.9 µM)
- MIC (Enterococcus): 32 µg/mL (≈ 44.9 µM)
- MIC (Streptococcus mutans [11]): 4 µg/mL (≈ 5.62 µM)
- MIC (Staphylococcus aureus [12]): 64 µg/mL (≈ 89.9 µM)
- MIC [13]: 4 µg/mL (≈ 5.62 µM)

SMILES: CCCCCCCCCCCCC(=O)NC[C@H]1O[C@H](O[C@@H]2[C@@H](O)[C@H](O[C@H]3O[C@H](CN)[C@@H](O)C[C@H]3N)[C@@H](N)C[C@H]2N)[C@H](O)[C@@H](N)[C@@H]1O
- hemolysis at 1 h, 128 ug/ml [14]: 10.2%
- hemolysis at 1 h, 64 ug/ml [1]: 0%
- MBIC [3]: 8 µg/mL
- MBIC (Streptococcus mutans [4]): 8 µg/mL
- MIC (Shigella sonnei [6]): 128 µg/mL (≈ 193 µM)
- MIC (Shigella sonnei [7]): 128 µg/mL (≈ 193 µM)
- MIC (Pseudomonas aeruginosa): 32 µg/mL (≈ 48.3 µM)
- MIC [8]: 8 µg/mL (≈ 12.1 µM)
- MIC [9]: 8 µg/mL (≈ 12.1 µM)
- MIC (Staphylococcus aureus [10]): 16 µg/mL (≈ 24.1 µM)
- MIC (Enterococcus faecalis): 128 µg/mL (≈ 193 µM)
- MIC (Enterococcus): 64 µg/mL (≈ 96.5 µM)
- MIC (Streptococcus mutans [11]): 4 µg/mL (≈ 6.03 µM)
- MIC (Staphylococcus aureus [12]): 128 µg/mL (≈ 193 µM)
- MIC [13]: 16 µg/mL (≈ 24.1 µM)

SMILES: CCCCCCCCCCCCSC[C@H]1O[C@H](O[C@@H]2[C@@H](O)[C@H](O[C@H]3O[C@H](CN)[C@@H](O)C[C@H]3N)[C@@H](N)C[C@H]2N)[C@H](O)[C@@H](N)[C@@H]1O
- hemolysis at 1 h, 128 ug/ml [14]: 71.6%
- MBIC [3]: 16 µg/mL
- MBIC (Streptococcus mutans [4]): 4 µg/mL
- MIC (Shigella sonnei [6]): 64 µg/mL (≈ 98.2 µM)
- MIC (Shigella sonnei [7]): 32 µg/mL (≈ 49.1 µM)
- MIC (Pseudomonas aeruginosa): 128 µg/mL (≈ 196 µM)
- MIC [8]: 8 µg/mL (≈ 12.3 µM)
- MIC [9]: 8 µg/mL (≈ 12.3 µM)
- MIC (Staphylococcus aureus [10]): 16 µg/mL (≈ 24.5 µM)
- MIC (Enterococcus faecalis): 128 µg/mL (≈ 196 µM)
- MIC (Enterococcus): 64 µg/mL (≈ 98.2 µM)
- MIC (Streptococcus mutans [11]): 8 µg/mL (≈ 12.3 µM)
- MIC (Staphylococcus aureus [12]): 64 µg/mL (≈ 98.2 µM)
- MIC [13]: 8 µg/mL (≈ 12.3 µM)

SMILES: CCCCCCCCCCCCCCc1cn(C[C@H]2O[C@H](O[C@@H]3[C@@H](O)[C@H](O[C@H]4O[C@H](CN)[C@@H](O)C[C@H]4N)[C@@H](N)C[C@H]3N)[C@H](O)[C@@H](N)[C@@H]2O)nn1
- hemolysis at 1 h, 64 ug/ml [1]: 74.4%
- hemolysis at 1 h, 32 ug/ml [2]: 23%
- MBIC [3]: 16 µg/mL
- MBIC (Streptococcus mutans [4]): 4 µg/mL
- Ratio [5]: 16
- MIC (Shigella sonnei [6]): 32 µg/mL (≈ 44.8 µM)
- MIC (Shigella sonnei [7]): 32 µg/mL (≈ 44.8 µM)
- MIC (Pseudomonas aeruginosa): 128 µg/mL (≈ 179 µM)
- MIC [8]: 4 µg/mL (≈ 5.59 µM)
- MIC [9]: 8 µg/mL (≈ 11.2 µM)
- MIC (Staphylococcus aureus [10]): 8 µg/mL (≈ 11.2 µM)
- MIC (Enterococcus faecalis): 128 µg/mL (≈ 179 µM)
- MIC (Enterococcus): 32 µg/mL (≈ 44.8 µM)
- MIC (Streptococcus mutans [11]): 4 µg/mL (≈ 5.59 µM)
- MIC (Staphylococcus aureus [12]): 64 µg/mL (≈ 89.5 µM)
- MIC [13]: 4 µg/mL (≈ 5.59 µM)

SMILES: CCCCCCCCCCCCCCCCc1cn(C[C@H]2O[C@H](O[C@@H]3[C@@H](O)[C@H](O[C@H]4O[C@H](CN)[C@@H](O)C[C@H]4N)[C@@H](N)C[C@H]3N)[C@H](O)[C@@H](N)[C@@H]2O)nn1
- hemolysis at 1 h, 64 ug/ml [1]: 37.9%
- MIC (Shigella sonnei [6]): 64 µg/mL (≈ 86.1 µM)
- MIC (Shigella sonnei [7]): 128 µg/mL (≈ 172 µM)
- MIC (Pseudomonas aeruginosa): > 128 µg/mL
- MIC [8]: 4 µg/mL (≈ 5.38 µM)
- MIC [9]: 8 µg/mL (≈ 10.8 µM)
- MIC (Staphylococcus aureus [10]): 16 µg/mL (≈ 21.5 µM)
- MIC (Enterococcus faecalis): 128 µg/mL (≈ 172 µM)
- MIC (Enterococcus): 16 µg/mL (≈ 21.5 µM)
- MIC (Streptococcus mutans [11]): 8 µg/mL (≈ 10.8 µM)
- MIC (Staphylococcus aureus [12]): 32 µg/mL (≈ 43.1 µM)
- MIC [13]: 16 µg/mL (≈ 21.5 µM)
